Assay results from ChEMBL document CHEMBL4138216, “Design, synthesis and structure-activity relationship of a focused library of β-phenylalanine derivatives as novel eEF2K inhibitors with apoptosis-inducing mechanisms in breast cancer” (Eur J Med Chem, 2018).
pIC50: −log10 of the molar value. Calls of active or inactive are those of the source. The rule behind the calls is not given here.

Key:
Mus musculus [1] = experiment: Toxicity in BALB/c nude mouse xenografted with human MDA-MB-231 cells assessed as body weight loss at 50 to 100 mg/kg, ig qd measured every 3 days for 24 days during compound dosing; assay type: organism-based; details: in vivo, po, 576 h
Mus musculus [2] = experiment: In vivo inhibition of eEF2K phosphorylation in tumor of BALB/c nude mouse xenografted with human MDA-MB-231 cells at 25 to 100 mg/kg, ig qd measured after 24 days by Western blot method; assay type: functional, organism-based
[3] = biological target: T1, Eukaryotic elongation factor 2 kinase (Homo sapiens, UniProt O00418); experiment: Inhibition of eEF2K (unknown origin) using peptide MH-1 as substrate after 2 hrs by ADP-Glo luminescent assay
T1 sequence (O00418 whole entry): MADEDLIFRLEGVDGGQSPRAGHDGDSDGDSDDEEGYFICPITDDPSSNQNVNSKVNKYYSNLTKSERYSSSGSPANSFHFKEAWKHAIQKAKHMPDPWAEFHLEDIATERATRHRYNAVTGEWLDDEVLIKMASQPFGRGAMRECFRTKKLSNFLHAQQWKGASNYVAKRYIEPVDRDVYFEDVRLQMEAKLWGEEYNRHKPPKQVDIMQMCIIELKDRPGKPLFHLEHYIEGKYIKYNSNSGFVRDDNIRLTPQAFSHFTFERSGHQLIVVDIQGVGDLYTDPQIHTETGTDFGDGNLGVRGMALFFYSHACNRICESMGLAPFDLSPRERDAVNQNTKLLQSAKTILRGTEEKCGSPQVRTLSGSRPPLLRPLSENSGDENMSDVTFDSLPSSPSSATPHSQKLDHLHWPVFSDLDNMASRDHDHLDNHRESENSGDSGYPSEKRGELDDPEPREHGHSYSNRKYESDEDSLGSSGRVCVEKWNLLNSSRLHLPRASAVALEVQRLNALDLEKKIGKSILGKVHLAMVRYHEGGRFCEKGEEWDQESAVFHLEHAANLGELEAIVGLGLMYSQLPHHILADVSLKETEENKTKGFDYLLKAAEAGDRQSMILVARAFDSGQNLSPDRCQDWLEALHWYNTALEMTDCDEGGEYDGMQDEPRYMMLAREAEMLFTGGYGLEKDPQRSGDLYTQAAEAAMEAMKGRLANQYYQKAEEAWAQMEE

MDA-MB-231 = experiment: cells; details: Homo sapiens, MDA-MB-231, 24 h
Description: Antiproliferative activity against human MDA-MB-231 cells assessed as decrease in cell viability after 24 hrs by MTT assay

With `N#Cc1ccc(S(=O)(=O)NC(CC(=O)O)c2ccc(Cl)cc2Cl)cc1` (centres undefined) the Activity (Mus musculus [1]) was “Non-Toxic”, the inhibition (Mus musculus [2]) was “Active” and the pIC50 [3] was 5.26. For the same molecule, the pIC50 (MDA-MB-231) was 4.90.
